Source: patent US8293780B1, “Anti-cancer agents based on 6-trifluoromethoxybenzimidazole derivatives and method of making” (U.S. Department of Energy, priority 2009, dated 2012)
Counter-ions that a name gives are not always drawn.

System: DU-145 cells (prostate carcinoma)
Test: DU-145 cell growth inhibition, tetrazolium dye XTT viability endpoint
Type: cell-based
Conditions: Homo sapiens, triplicate, five half-logarithmic dilutions, read-out: DU145 TC50
Description: Cell Preparation: DU-145 cells (prostate carcinoma; catalog #HTB-81) were obtained from the ATCC and propagated in EMEM with Earles BSS supplemented with 10% FBS (fetal bovine serum), 2 mM L-glutamine, 100 U/mL penicillin, 100 μg/mL streptomycin, 1 mM sodium pyruvate, and 0.1 mM NEAA (Non-Essential Amino Acids). DU-145 cells were passaged in T-75 flasks prior to use in the assay. On the day preceding the assay, the cells were split 1:2 to assure they were in an exponential growth phase at the time of infection. Total cell and viability quantification was performed using a hemocytometer and Trypan Blue dye exclusion. Cell viability was greater than 95% for the cells to be utilized in the assay. The cells were re-suspended at 1×10^5 cells per mL in tissue culture medium and added to the drug-containing microtiter plates in a volume of 100 μL.
Plate Format: Each plate contained cell control wells (cells only), experimental compound evaluation wells (cells plus compound only), and test compound colorimetric control wells (compound only). Samples were initially tested in triplicate for inhibition of DU-145 cell growth at 10 μM concentration for each compound with a single colorimetric control well. Secondary assay tested the compounds in triplicate using five half-logarithmic dilutions.
Tetrazolium Dye XTT Viability Endpoint: Following incubation at 37° C. in a 5% CO2 incubator, the test plates were stained with the tetrazolium dye XTT (2,3-bis(2-methoxy-4-nitro-5-sulfophenyl)-5-[(phenylamino)carbonyl]-2H-tetrazolium hydroxide). XTT was metabolized by the mitochondrial enzymes of metabolically active cells to a soluble formazan product, allowing rapid quantitative analysis of the inhibition of DU-145 […] by anti-prostate cancer test substances. XTT solution was prepared daily as a stock of 1 mg/mL in RPMI1640. Phenazine methosulfate (PMS) solution was prepared at 0.15 mg/mL in PBS (Phosphate—Buffered Saline) and stored in the dark at −20° C. XTT/PMS stock was prepared immediately before use by adding 40 μL of PMS per ml of XTT solution. Fifty microliters of XTT/PMS was added to each well of the plate and the plate was reincubated for 4 hours at 37° C. Plates were sealed with adhesive plate sealers and shaken gently or inverted several times to mix the soluble formazan product and the plate was read spectrophotometrically at 450/650 nm with a Molecular Devices Vmax plate reader.
IC50 represents the concentration of a drug that is required for 50% inhibition in vitro.

| Structure (SMILES) | CC50 [µM] |
| --- | --- |
| Cc1nc2ccc(OC(F)(F)F)cc2[nH]1 | > 10 |
| CCc1nc2ccc(OC(F)(F)F)cc2[nH]1 | > 10 |
| FC(F)(F)Oc1ccc2nc(-c3ccccc3)[nH]c2c1 | 0.9 |
| FC(F)(F)Oc1ccc2nc(-c3ccco3)[nH]c2c1 | 1.8 |
| FC(F)(F)Oc1ccc2nc(-c3cccnc3)[nH]c2c1 | 4.6 |
| CC/C(=C(\c1ccccc1)c1ccc(OCCN(C)C)cc1)c1ccccc1 [Tamoxifen Citrate, reference compound] | 20 |
